Key:
[1] = biological target: T1, 3-phosphoinositide-dependent protein kinase 1 (Homo sapiens) (UniProt O15530); assay: Percentage PDK1 activity remaining in the presence of 3uM inhibitor
T1 sequence (whole entry): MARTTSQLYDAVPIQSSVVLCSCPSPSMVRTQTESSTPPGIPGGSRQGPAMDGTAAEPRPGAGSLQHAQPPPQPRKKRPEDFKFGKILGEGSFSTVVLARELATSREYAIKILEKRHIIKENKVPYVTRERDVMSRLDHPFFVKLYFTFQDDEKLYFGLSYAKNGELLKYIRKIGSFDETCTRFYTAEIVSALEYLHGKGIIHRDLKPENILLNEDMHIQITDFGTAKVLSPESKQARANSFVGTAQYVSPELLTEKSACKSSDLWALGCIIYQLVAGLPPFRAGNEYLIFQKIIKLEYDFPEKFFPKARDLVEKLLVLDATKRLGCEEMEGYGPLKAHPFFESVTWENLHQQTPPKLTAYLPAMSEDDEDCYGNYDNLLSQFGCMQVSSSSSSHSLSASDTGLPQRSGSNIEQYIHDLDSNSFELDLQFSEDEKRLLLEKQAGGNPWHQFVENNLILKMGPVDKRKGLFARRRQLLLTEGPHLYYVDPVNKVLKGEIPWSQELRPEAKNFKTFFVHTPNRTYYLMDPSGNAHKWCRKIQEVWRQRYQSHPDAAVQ

[2] = biological target: Tyrosine-protein kinase CSK (Homo sapiens, UniProt P41240); assay: Percentage CSK activity remaining in the presence of 25uM inhibitor
Sequence of Tyrosine-protein kinase CSK (P41240 2-450 limits assumed): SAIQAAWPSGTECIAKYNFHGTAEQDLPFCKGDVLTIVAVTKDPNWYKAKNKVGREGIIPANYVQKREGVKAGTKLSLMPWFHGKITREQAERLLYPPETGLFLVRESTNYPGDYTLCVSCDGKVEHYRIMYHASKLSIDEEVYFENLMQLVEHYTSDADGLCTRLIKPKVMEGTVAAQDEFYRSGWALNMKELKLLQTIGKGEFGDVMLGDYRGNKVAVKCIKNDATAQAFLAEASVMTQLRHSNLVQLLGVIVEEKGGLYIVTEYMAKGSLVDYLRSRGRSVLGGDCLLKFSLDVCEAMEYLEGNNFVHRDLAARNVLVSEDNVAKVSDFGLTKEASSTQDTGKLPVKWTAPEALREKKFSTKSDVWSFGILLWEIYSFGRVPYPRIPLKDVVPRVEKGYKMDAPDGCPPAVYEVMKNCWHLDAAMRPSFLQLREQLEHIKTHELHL

[3] = biological target: Glycogen synthase kinase-3 beta (Homo sapiens, UniProt P49841); assay: Percentage GSK3-beta activity remaining in the presence of 25uM inhibitor
Sequence of Glycogen synthase kinase-3 beta (P49841 whole entry, looked up): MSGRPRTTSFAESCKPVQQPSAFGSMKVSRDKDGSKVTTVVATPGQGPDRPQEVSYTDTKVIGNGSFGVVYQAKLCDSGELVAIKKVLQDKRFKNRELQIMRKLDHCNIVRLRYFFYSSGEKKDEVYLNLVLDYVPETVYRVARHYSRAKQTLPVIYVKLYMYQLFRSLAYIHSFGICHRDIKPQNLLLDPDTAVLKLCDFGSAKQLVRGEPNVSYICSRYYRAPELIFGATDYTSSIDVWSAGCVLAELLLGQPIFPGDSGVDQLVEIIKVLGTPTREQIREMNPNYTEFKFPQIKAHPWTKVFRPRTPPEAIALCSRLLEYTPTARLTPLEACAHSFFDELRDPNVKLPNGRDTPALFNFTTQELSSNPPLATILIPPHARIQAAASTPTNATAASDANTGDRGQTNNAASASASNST

[4] = biological target: Homeodomain-interacting protein kinase 3 (Homo sapiens) (UniProt Q9H422); assay: Percentage HIPK3 activity remaining in the presence of 25uM inhibitor
Sequence of Homeodomain-interacting protein kinase 3 (Homo sapiens) (Q9H422 whole entry, looked up): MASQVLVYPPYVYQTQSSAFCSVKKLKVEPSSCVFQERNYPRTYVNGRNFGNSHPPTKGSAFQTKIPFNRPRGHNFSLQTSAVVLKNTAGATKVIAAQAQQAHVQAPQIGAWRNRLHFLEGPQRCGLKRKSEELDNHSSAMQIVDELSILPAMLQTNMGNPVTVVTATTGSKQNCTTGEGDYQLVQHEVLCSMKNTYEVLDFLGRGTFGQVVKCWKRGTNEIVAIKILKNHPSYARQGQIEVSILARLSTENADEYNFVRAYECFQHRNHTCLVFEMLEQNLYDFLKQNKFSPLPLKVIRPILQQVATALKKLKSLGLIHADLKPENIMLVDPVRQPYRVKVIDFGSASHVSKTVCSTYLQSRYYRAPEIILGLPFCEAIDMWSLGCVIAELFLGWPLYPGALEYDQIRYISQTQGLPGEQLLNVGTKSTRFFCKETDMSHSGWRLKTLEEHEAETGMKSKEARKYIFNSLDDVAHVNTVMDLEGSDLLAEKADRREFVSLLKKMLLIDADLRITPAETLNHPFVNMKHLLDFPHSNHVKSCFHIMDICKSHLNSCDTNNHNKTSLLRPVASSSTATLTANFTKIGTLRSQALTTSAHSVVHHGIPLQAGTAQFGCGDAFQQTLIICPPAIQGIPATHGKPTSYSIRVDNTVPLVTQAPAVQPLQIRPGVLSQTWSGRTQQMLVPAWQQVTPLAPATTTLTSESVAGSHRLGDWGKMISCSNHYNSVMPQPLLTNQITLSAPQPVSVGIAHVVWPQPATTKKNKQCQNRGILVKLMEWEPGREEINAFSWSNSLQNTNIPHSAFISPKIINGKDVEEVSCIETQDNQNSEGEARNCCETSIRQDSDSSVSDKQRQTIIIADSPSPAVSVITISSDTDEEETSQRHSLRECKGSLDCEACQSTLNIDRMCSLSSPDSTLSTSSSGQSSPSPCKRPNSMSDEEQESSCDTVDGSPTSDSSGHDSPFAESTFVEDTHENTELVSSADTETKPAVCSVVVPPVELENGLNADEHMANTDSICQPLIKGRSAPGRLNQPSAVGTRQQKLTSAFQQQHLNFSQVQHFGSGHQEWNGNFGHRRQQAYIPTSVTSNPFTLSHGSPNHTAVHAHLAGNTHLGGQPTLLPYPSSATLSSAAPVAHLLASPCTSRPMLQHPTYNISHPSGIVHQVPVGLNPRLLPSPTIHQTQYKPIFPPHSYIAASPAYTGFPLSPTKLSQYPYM

[5] = biological target: Ribosomal protein S6 kinase alpha-5 (Homo sapiens) (UniProt O75582); assay: Percentage MSK1 activity remaining in the presence of 25uM inhibitor
Sequence of Ribosomal protein S6 kinase alpha-5 (Homo sapiens) (O75582 whole entry, looked up): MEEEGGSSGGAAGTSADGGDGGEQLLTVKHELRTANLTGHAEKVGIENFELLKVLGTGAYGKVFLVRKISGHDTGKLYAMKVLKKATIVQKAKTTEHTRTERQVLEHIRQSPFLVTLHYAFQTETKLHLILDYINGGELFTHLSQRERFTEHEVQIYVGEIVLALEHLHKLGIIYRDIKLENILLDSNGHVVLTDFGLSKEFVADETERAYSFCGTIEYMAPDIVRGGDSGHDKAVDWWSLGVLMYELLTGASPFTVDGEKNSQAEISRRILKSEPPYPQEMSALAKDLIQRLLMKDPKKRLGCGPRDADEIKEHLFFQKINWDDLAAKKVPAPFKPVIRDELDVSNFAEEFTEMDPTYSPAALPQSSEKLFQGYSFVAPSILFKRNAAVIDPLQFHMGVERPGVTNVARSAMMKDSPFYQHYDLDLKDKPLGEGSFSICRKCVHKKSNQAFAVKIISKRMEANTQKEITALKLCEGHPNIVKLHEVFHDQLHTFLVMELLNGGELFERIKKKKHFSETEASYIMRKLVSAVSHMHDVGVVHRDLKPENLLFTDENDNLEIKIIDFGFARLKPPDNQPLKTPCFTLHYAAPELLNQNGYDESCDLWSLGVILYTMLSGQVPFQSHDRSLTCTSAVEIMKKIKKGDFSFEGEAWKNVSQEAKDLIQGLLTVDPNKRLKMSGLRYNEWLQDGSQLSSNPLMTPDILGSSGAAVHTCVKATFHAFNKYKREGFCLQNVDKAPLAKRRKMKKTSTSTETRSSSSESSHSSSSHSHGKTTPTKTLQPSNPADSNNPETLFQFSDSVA

[6] = biological target: T2, Mitogen-activated protein kinase 15 (Homo sapiens) (UniProt Q8TD08); assay: Percentage ERK8 activity remaining in the presence of 25uM inhibitor
T2 sequence (whole entry): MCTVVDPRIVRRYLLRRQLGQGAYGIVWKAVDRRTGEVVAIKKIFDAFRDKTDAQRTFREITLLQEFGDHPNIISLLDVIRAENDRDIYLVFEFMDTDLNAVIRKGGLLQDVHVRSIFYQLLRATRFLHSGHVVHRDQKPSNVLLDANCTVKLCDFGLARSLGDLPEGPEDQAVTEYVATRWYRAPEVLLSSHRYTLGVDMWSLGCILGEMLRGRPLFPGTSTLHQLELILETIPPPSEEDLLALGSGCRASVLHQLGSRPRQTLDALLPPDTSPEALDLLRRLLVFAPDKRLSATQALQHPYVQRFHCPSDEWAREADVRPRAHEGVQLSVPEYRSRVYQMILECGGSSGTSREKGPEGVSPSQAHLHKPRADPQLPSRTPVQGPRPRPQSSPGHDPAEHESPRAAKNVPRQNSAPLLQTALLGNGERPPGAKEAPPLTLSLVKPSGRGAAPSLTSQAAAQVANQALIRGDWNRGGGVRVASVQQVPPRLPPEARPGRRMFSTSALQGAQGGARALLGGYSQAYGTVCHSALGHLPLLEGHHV

[7] = biological target: T3, Eukaryotic elongation factor 2 kinase (Homo sapiens) (UniProt O00418); assay: Percentage EF2K activity remaining in the presence of 25uM inhibitor
T3 sequence (whole entry): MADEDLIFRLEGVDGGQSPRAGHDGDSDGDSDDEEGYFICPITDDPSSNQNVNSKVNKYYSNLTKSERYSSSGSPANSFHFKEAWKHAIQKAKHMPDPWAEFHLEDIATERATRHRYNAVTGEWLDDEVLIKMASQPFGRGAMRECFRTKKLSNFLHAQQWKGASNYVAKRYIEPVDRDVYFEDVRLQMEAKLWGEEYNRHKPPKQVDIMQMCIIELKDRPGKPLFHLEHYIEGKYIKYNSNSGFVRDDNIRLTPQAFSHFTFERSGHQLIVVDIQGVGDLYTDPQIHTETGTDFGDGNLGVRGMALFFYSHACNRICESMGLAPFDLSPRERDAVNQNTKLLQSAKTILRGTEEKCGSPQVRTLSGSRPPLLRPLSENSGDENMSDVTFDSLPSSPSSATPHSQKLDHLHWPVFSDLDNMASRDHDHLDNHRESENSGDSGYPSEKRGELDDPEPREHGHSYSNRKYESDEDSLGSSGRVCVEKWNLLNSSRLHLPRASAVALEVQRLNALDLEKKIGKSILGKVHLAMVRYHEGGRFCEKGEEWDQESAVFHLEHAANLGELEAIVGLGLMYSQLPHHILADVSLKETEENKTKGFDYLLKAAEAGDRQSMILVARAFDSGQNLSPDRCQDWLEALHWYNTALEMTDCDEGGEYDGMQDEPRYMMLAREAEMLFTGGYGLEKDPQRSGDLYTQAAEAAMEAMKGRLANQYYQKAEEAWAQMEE

[8] = biological target: T4, Serine/threonine-protein kinase D1 (Homo sapiens) (UniProt Q15139); assay: Percentage PKD1 activity remaining in the presence of 25uM inhibitor
T4 sequence (whole entry): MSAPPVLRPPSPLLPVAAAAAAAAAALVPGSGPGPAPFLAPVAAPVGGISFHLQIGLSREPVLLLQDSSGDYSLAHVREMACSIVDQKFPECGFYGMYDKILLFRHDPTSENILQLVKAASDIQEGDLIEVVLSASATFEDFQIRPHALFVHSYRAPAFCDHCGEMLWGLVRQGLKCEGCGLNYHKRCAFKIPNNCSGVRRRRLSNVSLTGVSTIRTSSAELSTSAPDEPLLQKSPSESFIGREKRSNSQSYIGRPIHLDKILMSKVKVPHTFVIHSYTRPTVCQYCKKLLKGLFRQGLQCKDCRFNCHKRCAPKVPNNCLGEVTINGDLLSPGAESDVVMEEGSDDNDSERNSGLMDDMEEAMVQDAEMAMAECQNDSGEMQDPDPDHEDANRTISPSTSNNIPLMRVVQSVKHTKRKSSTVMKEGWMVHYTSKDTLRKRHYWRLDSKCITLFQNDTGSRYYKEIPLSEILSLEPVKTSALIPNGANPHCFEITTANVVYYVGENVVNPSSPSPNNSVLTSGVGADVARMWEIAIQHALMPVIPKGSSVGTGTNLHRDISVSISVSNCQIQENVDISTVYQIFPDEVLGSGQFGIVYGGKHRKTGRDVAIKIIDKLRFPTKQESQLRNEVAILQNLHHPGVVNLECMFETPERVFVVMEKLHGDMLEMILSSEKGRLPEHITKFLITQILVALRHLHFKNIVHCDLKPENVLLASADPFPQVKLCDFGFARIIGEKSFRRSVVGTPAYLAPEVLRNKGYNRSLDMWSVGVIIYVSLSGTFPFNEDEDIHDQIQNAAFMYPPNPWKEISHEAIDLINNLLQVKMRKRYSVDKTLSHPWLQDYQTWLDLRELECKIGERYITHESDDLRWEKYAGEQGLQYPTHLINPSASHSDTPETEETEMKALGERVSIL

Work on Cc1ccc(-c2c(C(=O)CF)n(CCCO)c3ncnc(N)c23)cc1 yielded an Activity [1] of 89%.

Work on COc1cc(OC)c(/C=C2/C(=O)Nc3ccccc32)c(OC)c1 yielded an Activity [2] of 81%, an Activity [3] of 74% and an Activity [4] of 95%. The Activity [5] was 88%, the Activity [6] was 68% and the Activity [7] was 100%. For the same compound, the Activity [8] was 62%.

NCCNS(=O)(=O)c1ccc(Cl)c2ccncc12 showed an Activity [2] of 79%, an Activity [3] of 75% and an Activity [4] of 86%. For the same compound, the Activity ([5]; filed as antagonist) was 42%, the Activity ([6]; filed as antagonist) was 29% and the Activity [7] was 94%. For the same compound, the Activity [8] was 60%.

— ChEMBL document CHEMBL1150976, “The selectivity of protein kinase inhibitors: a further update” (Biochem J, 2007)
